Assay results as given in ChEMBL document CHEMBL3045079, “Synthesis, antimalarial and antibacterial activities of 3-amino acid- and aryl amine-substituted 2-methyl-3H-quinalzolin-4-ones” (2010).
Activity calls are given as the source filed them. The calls are words filed in the database; no cut-off is given here.

Tests used:
Plasmodium yoelii [1] = experiment: Antimalarial activity against Plasmodium yoelii N-67 infected Swiss mouse assessed as parasitemia at 200 mg/kg, ip qd administered 4 days measured on day 7 (reference value: 19.5 +/- 0.76 %); assay type: functional; settings: route intraperitoneal
Plasmodium yoelii [2] = experiment: Antimalarial activity against Plasmodium yoelii N-67 infected Swiss mouse assessed as parasitemia at 200 mg/kg, ip qd administered 4 days measured 24 hr post last treatment (reference value: 12.36 +/- 1.14 %); assay type: functional; settings: route intraperitoneal
Staphylococcus aureus = experiment: Antibacterial activity against Staphylococcus aureus at 100 ug after 24 hr by cup-plate method; assay type: functional, organism-based
Escherichia coli = experiment: Antibacterial activity against Escherichia coli at 100 ug after 24 hr by cup-plate method; assay type: functional, organism-based
Plasmodium yoelii [3] = experiment: Antimalarial activity against Plasmodium yoelii N-67 infected Swiss mouse assessed as mean survival time at 200 mg/kg, ip qd administered 4 days measured 24 hr post last treatment (reference value: 8.2 +/- 0.86 days); assay type: functional; settings: route intraperitoneal

| Structure (SMILES) | Activity (Plasmodium yoelii [1]) [%] | Activity (Plasmodium yoelii [2]) [%] | Activity (Staphylococcus aureus) | Activity (Escherichia coli) | MST (Plasmodium yoelii [3]) [days] |
| --- | --- | --- | --- | --- | --- |
| Cc1nc2ccccc2c(=O)n1[C@@H](CCCCN)C(=O)O | 17.5 | 9.78 | inactive | inactive | 6.8 |
| Cc1nc2ccccc2c(=O)n1[C@@H](CCC(=O)O)C(=O)O | 18.45 | 9.6 | inactive | inactive | 7.8 |
| Cc1nc2ccccc2c(=O)n1CC(=O)O | 17.2 | 10.5 | inactive | inactive | 6.6 |
| Cc1nc2ccccc2c(=O)n1-c1ccc([N+](=O)[O-])cc1 | 25.5 | 10.43 | inactive | inactive | 7 |
| Cc1nc2ccccc2c(=O)n1-c1ccc(O)cc1 | 16.8 | 10.52 | inactive | inactive | 6.8 |
| Cc1nc2ccccc2c(=O)n1[C@@H](CS)C(=O)O | 25 | 11.9 | inactive | inactive | 7.4 |
